According to patent US6579874B2, “Substituted azoles” (Novartis AG, priority 1999, dated 2003):
Counter-ions that a name gives are not always drawn.

Legend:
[1] = test system: TNF-α release from hPBMCs; experiment: Assay for Inhibition of TNF-α Release from hPBMCs (IFNg/LPS stimulated, ELISA); assay type: cell-based; settings: Homo sapiens, 3 h, IFNg (100 U/ml) and LPS, three hours, TNF-α in supernatant by ELISA, read-out: IC50 for suppression of TNF release
Procedure: Assay for Inhibition of TNF-α Release from hPBMCs
Human peripheral blood mononuclear cells (hPBMCs) are prepared from the peripheral blood of healthy volunteers using ficoll-hypaque density separation according to the method of Hansell et al., J. Imm. Methods (1991) 145: 105. and used at a concentration of 10^5 cells/well in RPMI 1640 plus 10% FCS. Cells are incubated with serial dilutions of the test compounds for 30 minutes at 37° C. prior to the addition of IFNg (100 U/ml) and LPS ([…]) and subsequently further incubated for three hours. Incubation is […] by centrifugation at 1400 RPM for 10 min. TNF-α in the supernatant is measured using a commercial ELISA (Innotest hTNFa, available from Innogenetics N.V., Zwijnaarde, Belgium). Agents of the Invention are tested at concentrations of from […]. Exemplified Agents of the Invention typical suppress TNF release in this assay with an IC50 of from about 500 nM to about 10 nM or less when tested in this assay.

[2] = target: T1, p38 MAP kinase (Mus musculus, UniProt P47811); experiment: p38 MAP Kinase Assay (phosphorylation of GST-ATF-2, ELISA detection); assay type: biochemical, murine; settings: His-p38 MAP kinase, GST-ATF-2 substrate, ATP 120 μM, 1 h at 37° C.; read-out: IC50 for p38 MAP kinase inhibition
T1 construct: a fusion protein comprising full length murine p38 MAP kinase and a His tag; host or cells: E. coli
Procedure: The substrate (GST-ATF-2; a fusion protein comprising amino acids 1-109 of ATF-2 and the GST protein obtained by expression in E. coli) is coated onto the webs of microtiter plates (50 μl/well; 1 μg/ml in PBS/0.02% Na azide) overnight at 4° C. The following day, the microtiter plates are washed four times with PBS/0.5% Tween 20/0.02% Na azide and are blocked with PBS/2% BSA/0.02% Na Azide for 1 h at 37° C. Plates are washed again 4 times with PBS/0.5% Tween 20/0.02% Na azide. The kinase cascade reaction is then started by adding the following reactants in 10 μl aliquots to a final reaction volume of 50 μl.
1. Agents of the Invention titrated from 10 to 0.001 μM in 10-fold dilutions or solvent (DMSO) or H2O.
2. Kinase buffer (5×); pH 7.4; 125 mM Hepes (Stock at 1M; Gibco #15630-056), 125 mM β-glycerophosphate (Sigma #G-6251):125 mM MgCl2 (Merck #5833); 0.5 mM Sodium orthovanadate (Sigma #5-6508), 10 mM DTT (Boehringer Mannheim #708992). The (5×) kinase buffer must be prepared fresh the day of the assay from 5× stock solutions kept at RT. DTT is kept at −20° C. and is added as the last reagent.
3. His-p38 MAP kinase (10 ng/well; Novartis—a fusion protein comprising full length murine p38 MAP kinase and a His tag, obtained by expression in E. coli)
4. cold ATP (final concentration 120 μM; Sigma #A-9187)
After 1 h at 37° C. the kinase reaction is terminated by washing the plates four times as previously described. Phosphorylated GST-ATF-2 is then detected by adding:
1. the PhosphoPlus ATF-2 (Thr71) Antibody (50 μl/well; 1/1000 final dilution in PBS/2% BSA/0.02% Na Azide; New England Biolabs #9221L) for 90 min at RT.
2. Biotin labelled goat-anti-rabbit IgG (50 μl/well; 1/3000 final dilution in PBS/2% BSA/0.02% Na Azide; Sigma #B-9642) for 90 min at RT.
3. Streptavidin-alkaline phosphatase (50 μl/well; 1/5000 dilution in PBS/2% BSA/0.02% Na Azide; Jackson Immunoresearch #016-050-84) for 30 min at RT.
4. Substrate (100 μl/well; Sigma 104 Phosphatase substrate tablets, 5 mg/tablet; #104-105; 1 mg/ml in substrate buffer, Diethanolamine (97 ml/l; Merck #803116)+MgCl2.6H2O (100 mg/l; Merck #5833)+Na Azide (0.2 g/l)+HCl 1M to pH 9.8) 30 min at RT.
After step 1, 2 and 3 the microtiter plates are washed four times with PBS/0.5% Tween 20/0.02% Na azide. After step 4, the plates are read in a Bio-Rad microplate reader in a dual wavelength mode (measurement filter […] and reference filter […]). The background value (without ATP) is subtracted and IC50 values are calculated using the Origin computer program (4 parameter logistic function).

T1 sequence (P47811 whole entry, the tested form may be a part): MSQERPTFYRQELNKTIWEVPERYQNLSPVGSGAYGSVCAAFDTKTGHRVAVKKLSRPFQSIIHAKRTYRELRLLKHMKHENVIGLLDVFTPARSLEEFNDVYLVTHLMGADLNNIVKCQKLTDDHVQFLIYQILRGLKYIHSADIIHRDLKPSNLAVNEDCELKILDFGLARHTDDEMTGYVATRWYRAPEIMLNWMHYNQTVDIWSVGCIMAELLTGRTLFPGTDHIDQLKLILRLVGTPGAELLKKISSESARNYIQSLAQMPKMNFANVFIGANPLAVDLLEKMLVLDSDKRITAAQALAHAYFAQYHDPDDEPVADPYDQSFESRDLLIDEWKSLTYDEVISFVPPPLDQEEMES

IC50 [1] [nM]	IC50 [2] [nM]	SMILES	melting point [°C]
–	1 to 10	CN1CCC(O)(c2nc(-c3ccc(F)cc3)c(-c3ccnc(NCC4CC4)c3)o2)CC1 [Example 15]	–
1 to 10	–	Fc1ccc(-c2nc(C3CCNCC3)oc2-c2ccnc(NCC3CC3)c2)cc1 [Example 19, 4-(4-Fluorophenyl)-2-(4-NH-piperidine-1-yl)-5-(2-cyclopropylmethylamino-4-pyridyl)oxazole]	–
1 to 10	–	CC(C)(O)CN1CCC(c2nc(-c3ccc(F)cc3)c(-c3ccnc(NCC4CC4)c3)o2)CC1 [Example 20, 4-(4-Fluorophenyl)-2-(4-N-(2-hydroxy-2-methyl)propylpiperidine-1-yl)-5-(2-cyclopropylmethylamino-4-pyridyl)oxazole]	–
1 to 10	–	CC(C)(O)CN1CCC(c2nc(-c3ccc(F)cc3)c(-c3ccnc(NC4CCCCC4)c3)o2)CC1 [Example 23, 4-(4-Fluorophenyl)-2-(4-N-(2-hydroxy-2-methyl)propylpiperidine-1-yl)-5-(2-cyclohexylamino-4-pyridyl)oxazole]	–
1 to 10	1 to 10	C[C@H](Nc1nccc(-n2cc(-c3ccncc3)nc2-c2ccc(F)cc2)n1)c1ccccc1 [Example 35, 2-(4-Fluorophenyl)-1-(2-[1-(S)-phenyl-ethyl]amino-4-pyrimidyl) 4-(4-pyridyl)imidazole]	–
1 to 10	1 to 10	C[C@H](Nc1nccc(-n2cc(-c3cccc(Cl)c3)nc2-c2ccc(F)cc2)n1)c1ccccc1 [Example 49, 2-(4-Fluorophenyl)-1-(2-[1-(S)-phenyl-ethyl]amino-4-pyrimidyl)-4-(3-chlorophenyl)imidazole]	–
1 to 10	–	C[C@H](Nc1nccc(-n2cc(/C=N/NC(=N)N)nc2-c2ccc(F)cc2)n1)c1ccccc1 [Example 50, 2-(4-Fluorophenyl)-1-(2-[1-(S)-phenyl-ethyl]amino-4-pyrimidyl)-4-methyleneaminoguanidinyl-imidazole]	–
1 to 10	1 to 10	CCOC(=O)N1CCC(c2cn(-c3ccnc(N[C@@H](C)c4ccccc4)n3)c(-c3ccc(F)cc3)n2)CC1 [Example 51, 2-(4-Fluorophenyl)-1-(2-(1-(S)-phenylethyl)amino-4-pyrimidyl)-4-(4-ethoxycarbonyl)piperidine-1-yl Imidazole]	–
1 to 10	1 to 10	C[C@H](Nc1nccc(-n2cc(C3CCNCC3)nc2-c2ccc(F)cc2)n1)c1ccccc1 [Example 52]	–
1 to 10	–	C[C@H](Nc1nccc(-n2cc(C3CCN(C=O)CC3)nc2-c2ccc(F)cc2)n1)c1ccccc1 [Example 53, 2-(4-Fluorophenyl)-1-(2-(1-(S)-phenylethyl)amino-4-pyrimidyl)-4-(4-formyl)-piperidine-1-yl Imidazole]	–
1 to 10	–	C[C@H](Nc1nccc(-n2cc(C3CCN(CC(C)(C)O)CC3)nc2-c2ccc(F)cc2)n1)c1ccccc1 [Example 54]	–
1 to 10	–	CC(C)(O)CN1CCC(c2cn(-c3ccnc(NC4CCCC4)n3)c(-c3ccc(F)cc3)n2)CC1 [Example 55]	–
1 to 10	–	C[C@H](Nc1nccc(-n2cc(C3CCN(C)CC3)nc2-c2ccc(F)cc2)n1)c1ccccc1 [Example 56, 2-(4-Fluorophenyl)-1-(2-(1-(S)-phenylethyl)amino-4-pyrimidyl)-4-(4-methyl)-piperidine-1-yl Imidazole]	–

The remaining lines, values behind:

SMILES	IC50 [1] [nM]	IC50 [2] [nM]	melting point [°C]
CN1CCC(O)(c2cn(-c3ccnc(NC4CCCC4)n3)c(-c3cccc(C(F)(F)F)c3)n2)CC1 (as salt: fumarate) [Example 33, 2-(3-Trifluoromethylphenyl)-4-(1-methyl-4-hydroxypiperidin-4-yl)-1-(2-cyclopentylamino-4-pyrimidyl)imidazole]	–	–	189 to 193
C[C@H](Nc1nccc(-c2oc(C3CCN(C)CC3)nc2-c2ccc(F)cc2)n1)c1ccccc1 [Example 4]	1 to 10	–	–
C[C@H](Nc1nccc(-c2oc(C3CCNCC3)nc2-c2ccc(F)cc2)n1)c1ccccc1 [Example 8, 4-(4-Fluorophenyl)-5-(2-[1-(S)-phenylethyl]amino-4-pyrimidyl)-2-(4-NH-piperidine-1-yl)oxazole]	1 to 10	–	–
Fc1ccc(-c2nc(C3CCNCC3)oc2-c2ccnc(NCC3CC3)n2)cc1 [Example 9, 4-(4-Fluorophenyl)-5-(2-cyclopropylmethylamino-4-pyrimidyl)-2-(4-NH-piperidin-1-yl)oxazole]	1 to 10	1 to 10	–
C[C@H](Nc1cc(-c2oc(C3(O)CCN(C)CC3)nc2-c2ccc(F)cc2)ccn1)c1ccccc1 [Example 14]	–	1 to 10	–
CN1CCC(O)(c2cn(-c3ccnc(NC4CCCCC4)n3)c(-c3ccc(F)cc3)n2)CC1 [Example 31]	1 to 10	–	–
CN1CCC(O)(c2cn(-c3ccnc(NC4CC4)n3)c(-c3cccc(C(F)(F)F)c3)n2)CC1 [Example 32, 2-(3-Trifluoromethylphenyl)-4-(1-methyl-4-hydroxypiperidin-4-yl)-1-(2-cyclopropylamino-4-pyrimidyl)imidazole]	1 to 10	–	–
CN1CCC(O)(c2cn(-c3ccnc(NC4CCCC4)n3)c(-c3cccc(C(F)(F)F)c3)n2)CC1 [Example 33, 2-(3-Trifluoromethylphenyl)-4-(1-methyl-4-hydroxypiperidin-4-yl)-1-(2-cyclopentylamino-4-pyrimidyl)imidazole]	1 to 10	–	–
C[C@H](Nc1nccc(-n2cc([C@]3(O)C[C@H]4CC[C@@H](C3)N4C(=O)OC(C)(C)C)nc2-c2ccc(F)cc2)n1)c1ccccc1 [Example 59, 2-(4-Fluorophenyl)-1-(2-(1-(S)-phenylethyl)amino-4-pyrimidyl)-4-(3a-hydroxy-N-tert.butyloxycarbonylnortropan-3b-yl)imidazole]	1 to 10	–	–
C[C@H](Nc1nccc(-n2cc([C@]3(O)C[C@H]4CC[C@@H](C3)N4)nc2-c2ccc(F)cc2)n1)c1ccccc1 [Example 60, 2-(4-Fluorophenyl)-1-(2-(1-(S)-phenylethyl)amino-4-pyrimidyl)-4-(3a-hydroxy-nortropan-3b-yl)imidazole]	1 to 10	–	–
